Measurements: ChEMBL document CHEMBL1153012, “Synthesis and antibacterial activity of novel 5-(4-methyl-1H-1,2,3-triazole) methyl oxazolidinones” (2009)
Values after ≈ are worked out from the molar mass of the structure shown.

How the values were obtained:
Type in all cases: functional
Staphylococcus [1] = experiment: Antibacterial activity against methicillin-sensitive coagulase-negative Staphylococcus by agar dilution method
Escherichia coli = experiment: Antibacterial activity against Escherichia coli ATCC 25922 by agar dilution method
Haemophilus influenzae [2] = experiment: Antibacterial activity against Haemophilus influenzae isolate 283 by agar dilution method
Staphylococcus aureus [3] = experiment: Antibacterial activity against methicillin-susceptible Staphylococcus aureus by agar dilution method
Enterococcus [4] = experiment: Antibacterial activity against vancomycin-sensitive Enterococcus by agar dilution method
Staphylococcus aureus [5] = experiment: Antibacterial activity against methicillin-resistant Staphylococcus aureus by agar dilution method
Haemophilus influenzae [6] = experiment: Antibacterial activity against Haemophilus influenzae isolate 285 by agar dilution method
Staphylococcus [7] = experiment: Antibacterial activity against methicillin resistant coagulase-negative Staphylococcus by agar dilution method
Haemophilus influenzae [8] = experiment: Antibacterial activity against Haemophilus influenzae isolate 280 by agar dilution method
Streptococcus pneumoniae = experiment: Antibacterial activity against Streptococcus pneumoniae by agar dilution method
Staphylococcus aureus [9] = experiment: Antibacterial activity against Staphylococcus aureus ATCC 25923 by agar dilution method in presence of human plasma; conditions: ATCC 25923, Plasma
Enterococcus [10] = experiment: Antibacterial activity against vancomycin-resistant Enterococcus by agar dilution method
Moraxella catarrhalis = experiment: Antibacterial activity against Moraxella catarrhalis by agar dilution method
Haemophilus influenzae [11] = experiment: Antibacterial activity against Haemophilus influenzae ATCC 49247 by agar dilution method
Haemophilus influenzae [12] = experiment: Antibacterial activity against Haemophilus influenzae isolate 282 by agar dilution method
Staphylococcus aureus [13] = experiment: Antibacterial activity against Staphylococcus aureus ATCC 25923 by agar dilution method

SMILES | MIC (Staphylococcus [1]) [µg/mL] | MIC (Escherichia coli) [µg/mL] | MIC (Haemophilus influenzae [2]) [µg/mL] | MIC (Staphylococcus aureus [3]) [µg/mL] | MIC (Enterococcus [4]) [µg/mL] | MIC (Staphylococcus aureus [5]) [µg/mL] | MIC (Haemophilus influenzae [6]) [µg/mL] | MIC (Staphylococcus [7]) [µg/mL] | MIC (Haemophilus influenzae [8]) [µg/mL] | MIC (Streptococcus pneumoniae) [µg/mL] | MIC (Staphylococcus aureus [9]) [µg/mL] | MIC (Enterococcus [10]) [µg/mL] | MIC (Moraxella catarrhalis) [µg/mL] | MIC (Haemophilus influenzae [11]) [µg/mL] | MIC (Haemophilus influenzae [12]) [µg/mL] | MIC (Staphylococcus aureus [13]) [µg/mL]
CCCCCCC(=O)N1CCN(c2ccc(N3C[C@H](Cn4cc(C)nn4)OC3=O)cc2F)CC1 | 4 (≈ 8.46 µM) | > 64 | > 64 | 8 (≈ 16.9 µM) | 4 (≈ 8.46 µM) | 8 (≈ 16.9 µM) | > 64 | 8 (≈ 16.9 µM) | > 64 | 8 (≈ 16.9 µM) | > 64 | 4 (≈ 8.46 µM) | 64 (≈ 135 µM) | > 64 | > 64 | 8 (≈ 16.9 µM)
Cc1cn(C[C@H]2CN(c3ccc(N4CCN(C(=O)C5CC5)CC4)c(F)c3)C(=O)O2)nn1 | 1 (≈ 2.33 µM) | > 64 | 32 (≈ 74.7 µM) | 2 (≈ 4.67 µM) | 1 (≈ 2.33 µM) | 2 (≈ 4.67 µM) | 32 (≈ 74.7 µM) | 1 (≈ 2.33 µM) | 32 (≈ 74.7 µM) | 2 (≈ 4.67 µM) | 16 | 1 (≈ 2.33 µM) | 16 (≈ 37.3 µM) | 32 (≈ 74.7 µM) | 32 (≈ 74.7 µM) | 2 (≈ 4.67 µM)
Cc1cn(C[C@H]2CN(c3ccc(N4CCN(C(=O)C5CCC5)CC4)c(F)c3)C(=O)O2)nn1 | 2 (≈ 4.52 µM) | > 64 | 32 (≈ 72.3 µM) | 2 (≈ 4.52 µM) | 2 (≈ 4.52 µM) | 2 (≈ 4.52 µM) | 32 (≈ 72.3 µM) | 2 (≈ 4.52 µM) | 32 (≈ 72.3 µM) | 4 (≈ 9.04 µM) | 16 | 2 (≈ 4.52 µM) | 32 (≈ 72.3 µM) | 32 (≈ 72.3 µM) | 32 (≈ 72.3 µM) | 4 (≈ 9.04 µM)
Cc1cn(C[C@H]2CN(c3ccc(N4CCN(C(=O)c5ccccc5)CC4)c(F)c3)C(=O)O2)nn1 | 1 (≈ 2.15 µM) | > 64 | > 64 | 1 (≈ 2.15 µM) | 1 (≈ 2.15 µM) | 1 (≈ 2.15 µM) | > 64 | 1 (≈ 2.15 µM) | > 64 | 4 (≈ 8.61 µM) | 32 | 1 (≈ 2.15 µM) | 32 (≈ 68.9 µM) | > 64 | > 64 | 2 (≈ 4.31 µM)
Cc1cn(C[C@H]2CN(c3ccc(N4CCN(C(=O)CC(C)C)CC4)c(F)c3)C(=O)O2)nn1 | 2 (≈ 4.5 µM) | > 64 | > 64 | 2 (≈ 4.5 µM) | 2 (≈ 4.5 µM) | 2 (≈ 4.5 µM) | > 64 | 2 (≈ 4.5 µM) | > 64 | 4 (≈ 9 µM) | 32 | 4 (≈ 9 µM) | 32 (≈ 72 µM) | 64 (≈ 144 µM) | > 64 | 4 (≈ 9 µM)
CCSC(=O)N1CCN(c2ccc(N3C[C@H](Cn4cc(C)nn4)OC3=O)cc2F)CC1 | 1 (≈ 2.23 µM) | > 64 | > 64 | 1 (≈ 2.23 µM) | 1 (≈ 2.23 µM) | 1 (≈ 2.23 µM) | > 64 | 1 (≈ 2.23 µM) | > 64 | 2 (≈ 4.46 µM) | 64 | 1 (≈ 2.23 µM) | 16 (≈ 35.7 µM) | > 64 | > 64 | 2 (≈ 4.46 µM)
Cc1cn(C[C@H]2CN(c3ccc(N4CCOCC4)c(F)c3)C(=O)O2)nn1 | 1 (≈ 2.77 µM) | > 64 | 64 (≈ 177 µM) | 1 (≈ 2.77 µM) | 1 (≈ 2.77 µM) | 0.5 (≈ 1.38 µM) | 64 (≈ 177 µM) | 1 (≈ 2.77 µM) | 64 (≈ 177 µM) | 1 (≈ 2.77 µM) | 4 | 1 (≈ 2.77 µM) | 8 (≈ 22.1 µM) | 64 (≈ 177 µM) | 64 (≈ 177 µM) | 2 (≈ 5.53 µM)
Cc1cn(C[C@H]2CN(c3ccc(N4CCN(C(=O)/C=C/c5ccccc5)CC4)c(F)c3)C(=O)O2)nn1 | 8 (≈ 16.3 µM) | > 64 | > 64 | 16 (≈ 32.6 µM) | 8 (≈ 16.3 µM) | 8 (≈ 16.3 µM) | > 64 | 8 (≈ 16.3 µM) | > 64 | 8 (≈ 16.3 µM) | > 64 | 8 (≈ 16.3 µM) | 64 (≈ 130 µM) | > 64 | > 64 | 16 (≈ 32.6 µM)
Cc1cn(C[C@H]2CN(c3ccc(N4CCNCC4)c(F)c3)C(=O)O2)nn1.O=C(O)C(F)(F)F | 4 | > 64 | 32 | 4 | 4 | 4 | 32 | 4 | 32 | 2 | 32 | 8 | 16 | 32 | 32 | 4
Cc1cn(C[C@H]2CN(c3ccc(N4CCN(C(=O)C(C)C)CC4)c(F)c3)C(=O)O2)nn1 | 0.5 (≈ 1.16 µM) | > 64 | > 64 | 1 (≈ 2.32 µM) | 1 (≈ 2.32 µM) | 0.5 (≈ 1.16 µM) | > 64 | 0.5 (≈ 1.16 µM) | > 64 | 2 (≈ 4.65 µM) | 16 | 0.5 (≈ 1.16 µM) | 16 (≈ 37.2 µM) | > 64 | > 64 | 1 (≈ 2.32 µM)
Cc1cn(C[C@H]2CN(c3ccc(N4CCN(C(=O)C(F)(F)F)CC4)c(F)c3)C(=O)O2)nn1 | 1 (≈ 2.19 µM) | 8 (≈ 17.5 µM) | 64 (≈ 140 µM) | 1 (≈ 2.19 µM) | 1 (≈ 2.19 µM) | 2 (≈ 4.38 µM) | 64 (≈ 140 µM) | 1 (≈ 2.19 µM) | 64 (≈ 140 µM) | 1 (≈ 2.19 µM) | 8 | 1 (≈ 2.19 µM) | 8 (≈ 17.5 µM) | 64 (≈ 140 µM) | 64 (≈ 140 µM) | 4 (≈ 8.76 µM)
CCC(=O)N1CCN(c2ccc(N3C[C@H](Cn4cc(C)nn4)OC3=O)cc2F)CC1 | 1 (≈ 2.4 µM) | > 64 | 32 (≈ 76.8 µM) | 1 (≈ 2.4 µM) | 1 (≈ 2.4 µM) | 1 (≈ 2.4 µM) | 32 (≈ 76.8 µM) | 1 (≈ 2.4 µM) | 32 (≈ 76.8 µM) | 1 (≈ 2.4 µM) | 8 | 1 (≈ 2.4 µM) | 16 (≈ 38.4 µM) | 32 (≈ 76.8 µM) | 32 (≈ 76.8 µM) | 2 (≈ 4.8 µM)
CCCCC(=O)N1CCN(c2ccc(N3C[C@H](Cn4cc(C)nn4)OC3=O)cc2F)CC1 | 1 (≈ 2.25 µM) | > 64 | 64 (≈ 144 µM) | 1 (≈ 2.25 µM) | 1 (≈ 2.25 µM) | 1 (≈ 2.25 µM) | 64 (≈ 144 µM) | 1 (≈ 2.25 µM) | 64 (≈ 144 µM) | 2 (≈ 4.5 µM) | 32 | 1 (≈ 2.25 µM) | 16 (≈ 36 µM) | 64 (≈ 144 µM) | 64 (≈ 144 µM) | 2 (≈ 4.5 µM)
